Patent EP1285920A1, “C10 Ester sustituted taxanes as antitumor agents” (Florida State University Research Foundation, Inc., priority 2001, dated 2003)
Where two headings read alike, the source gives them in different places.

Assays:
[1] = tested on: VM46 colon carcinoma; settings: for Toxic Deaths / Complete Response / Partial Response / Stable Disease / Survivors: number of mice; for Complete Response / Partial Response / Stable Disease / Survivors: Day 64
Experimental: Dosing was initiated on Day 1. […] Taxotere was given i.v. at a dose of 70 mg/kg on a qd x 1 schedule.

[2] = tested on: HCT116 carcinoma; settings: for Partial Response / Complete Response / Mean Score / Stable Disease: iv; for Complete Response / Mean Score / Stable Disease: 1440 h; for Survivors / Toxic Deaths: number of 5 mice, i.v. qd x 1 at MTD, Day 60; for Survivors: doses as in E3; for Toxic Deaths: mg/kg: Taxol 36 (split doses), 0503 72.6, 0536 49, 0663 159, 0670 123, 0687 159, 0706 108, 0908 159, 0947 76.9, 0951 72.6, 0983 72.6, 0999 49, 1003 49, 1011 108
Experimental: Antitumor compounds were formulated for an i.v. dosing regime and were prepared in the following vehicle: 5% ethanol, 5% Cremophor and 90% isotonic saline.
(§1) The antitumor compounds were given intravenously in a single maximum tolerated dose (MTD) appropriate for each compound. […] The MTDs for the antitumor compounds were calculated from earlier single dose data for mice receiving i.v. administration of these compounds. All vehicle control animals in the split dosing regimes were dosed twice intravenously with half of the total volume being given separated by one hour. The study was terminated on Day 60.
A complete response is obtained if the tumor is not palpable at the end of the study.

[3] = tested on: MX-1 carcinoma; settings: for Survivors / Toxic Deaths: number of 6 mice, i.v. qd x 1 at MTD, Day 60; for Survivors: doses as in E17; for Toxic Deaths: mg/kg: Taxol 36 (split dose), 0503 72.6, 0536 49, 0663 159, 0670 123, 0687 159, 0706 108, 0908 159, 0947 76.9, 0951 72.6, 0983 67.4, 0999 49, 1003 49, 1011 108
Experimental: Thirteen antitumor compounds were formulated for an i.v. dosing regime (single i.v. bolus, qd x 1 schedule) prepared in the following vehicle: 5% ethanol, 5% Cremophor and 90% isotonic saline.
as §1, with “half” for “half of”
A complete response is obtained if the tumor is not palpable at the end of the study. […]

[4] = tested on: A2780 ovarian carcinoma
Experimental: Dosing was initiated on Day 1. […] Taxotere was given i.v. on a qd x 1 schedule at a dose of 70 mg/kg. […] The study was terminated on Day 60. Treatment groups are detailed in Table 7.

[5] = tested on: HCT116; assay: In Vitro cytotoxicity measured by the cell colony formation assay; format: cell-based, human; settings: Homo sapiens, HCT-116; read-out: IN VITRO ID 50 HCT116
In short: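 Four hundred cells per dish in McCoy's 5a medium with 10% FBS were allowed to attach for 5 h at 37 °C. They were then exposed to compound for 72 h at 37 °C, added as a 10× stock made fresh in medium. After HBSS rinsing and refeeding, colonies were counted after 7 days.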

[6] = tested on: A375 melanoma
Experimental: Dosing was initiated on Day 1. […] Taxotere was given i.v. on a qd x 1 schedule at a dose of 70 mg/kg. […] The study was terminated on Day 60. Treatment groups are detailed in Table 9.

[7] = i.v. qd x 1, mg/kg: Taxol 24, 0499 77, 0503 72.6, 0670 123.1, 0706 107.6, 0838 72.6, 0854 46.6, 0983 67.4, Taxotere 70, 6 mice/group
[8] = number of mice, i.v. qd x 1 at estimated MTD (Taxol 24 mg/kg, Taxotere 70 mg/kg, 0983 72.6 mg/kg), 5 mice/group (Taxotere 6)
[9] = number of mice, i.v. qd x 1 at estimated MTD (Taxol 24 mg/kg, Taxotere 70 mg/kg, 0983 72.6 mg/kg), 5 mice/group (Taxotere 6), Day 60
[10] = A2780, i.v. qd x 1, five mice per group
[11] = number of mice, i.v. qd x 1 at estimated MTD (Taxol 24 mg/kg, Taxotere 70 mg/kg), 6 mice/group (Taxotere 7), Day 60

| SMILES | Toxic Deaths [1, 7] | Complete Response [1, 7] | Partial Response [1, 7] | Stable Disease [1, 7] | Survivors [1, 7] | Partial Response [2] | Complete Response [2] | Mean Score [2] | Stable Disease [2] | Survivors [2] | Toxic Deaths [2] | Partial Response ([3]; iv) | Complete Response ([3]; iv, 1440 h) | Mean Score ([3]; iv, 1440 h) | Stable Disease ([3]; iv, 1440 h) | Survivors [3] | Toxic Deaths [3] | Toxic Deaths [4, 8] | Survivors [4, 9] | IC50 [5] [nM] | further results |
| --- | --- | --- | --- | --- | --- | --- | --- | --- | --- | --- | --- | --- | --- | --- | --- | --- | --- | --- | --- | --- | --- |
| CCCC(=O)O[C@H]1C(=O)[C@@]2(C)[C@H]([C@H](OC(=O)c3ccccc3)[C@]3(O)C[C@H](OC(=O)[C@H](O)[C@@H](NC(=O)OC(C)(C)C)c4ccco4)C(C)=C1C3(C)C)[C@]1(OC(C)=O)CO[C@@H]1C[C@@H]2O [Compound 0983] | 3 | 0 | 0 | 1 | 1 | 1 | 2 | 5.8 ± 2.4 | 0 | 3 | 2 | 0 | 6 | 10 ± 0 | 0 | 6 | 0 | 5 | 0 | < 1 | response rate ([1]; VM46, i.v. qd x 1 at estimated MTD): 0%; Mean Score ([1]; iv): 1.7 ± 0.8; MDS (n) ([1]; iv, 1536 h): 56.0 ± 6.8 (2) days; group mean weight losses ([2]; HCT116, single i.v. MTD, Days 6-10): over 20%; Mean Score ([4]; iv, 72.6 mg/kg): 0 ± 0; Complete Response ([4]; iv, 72.6 mg/kg, 1440 h): 0; Partial Respons ([4]; iv, 72.6 mg/kg, 1440 h): 0; Stable Disease ([4]; iv, 72.6 mg/kg, 1440 h): 0 |
| CCCC(=O)O[C@H]1C(=O)[C@@]2(C)[C@H]([C@H](OC(=O)c3ccccc3)[C@]3(O)C[C@H](OC(=O)[C@H](O)[C@@H](NC(=O)OC(C)(C)C)c4cccs4)C(C)=C1C3(C)C)[C@]1(OC(C)=O)CO[C@@H]1C[C@@H]2O [Compound 1003] | – | – | – | – | – | 3 | 2 | 9.4 ± 0.2 | 0 | 5 | 0 | 0 | 4 | 7.3 ± 1.7 | 0 | 4 | 0 | – | – | < 1 | MDS (n) ([3]; iv, 1440 h): 29.1 ± 10.8 (2) days; partial responses [4, 10]: 2; total response rate [4, 10]: at least 20% |
| CC(=O)O[C@@]12CO[C@@H]1C[C@H](O)[C@@]1(C)C(=O)[C@H](O)C3=C(C)[C@@H](OC(=O)[C@H](O)[C@@H](NC(=O)OC(C)(C)C)c4ccccc4)C[C@@](O)([C@@H](OC(=O)c4ccccc4)[C@H]21)C3(C)C [Taxotere, docetaxel, reference compound] | 0 | 0 | 0 | 0 | 0 | – | – | – | – | – | – | – | – | – | – | – | – | 0 | 0 | 0.6 | survival extension compared to Group 1 controls ([6]; A375, i.v. qd x 1): 49%; MDS ([6]; A375, i.v. qd x 1 (Taxol 24 mg/kg split; Taxotere 70 mg/kg), days until tumor 2.0 g, ended Day 60): 21.5 days; MDS (n) ([6]; mean days of survival until neoplasm reached 2.0 g, i.v. qd x 1 at estimated MTD (Taxol 24 mg/kg, Taxotere 70 mg/kg), 6 mice/group (Taxotere 7), terminated Day 60): 21.5 ± 0.5 (7) days; Toxic Deaths ([6]; number of mice, i.v. qd x 1 at estimated MTD (Taxol 24 mg/kg, Taxotere 70 mg/kg), 6 mice/group (Taxotere 7)): 0; Complete Response [6, 11]: 0; Partial Response [6, 11]: 0; Stable Disease [6, 11]: 0; Survivors [6, 11]: 0; Mean Score ([6]; tumor scoring system, i.v. qd x 1 at estimated MTD (Taxol 24 mg/kg, Taxotere 70 mg/kg), 6 mice/group (Taxotere 7)): 2 ± 0; MDS ([1]; VM46, i.v. qd x 1 (Taxol 24 mg/kg split; Taxotere 70 mg/kg), days until tumor 1.5 g): 45.3 days; MDS (n) ([1]; mean days of survival until neoplasm reached 1.5 g, i.v. qd x 1, mg/kg: Taxol 24, 0499 77, 0503 72.6, 0670 123.1, 0706 107.6, 0838 72.6, 0854 46.6, 0983 67.4, Taxotere 70, 6 mice/group, terminated Day 64): 45.3 ± 3.6 (6) days; Mean Score ([1]; tumor scoring system, i.v. qd x 1, mg/kg: Taxol 24, 0499 77, 0503 72.6, 0670 123.1, 0706 107.6, 0838 72.6, 0854 46.6, 0983 67.4, Taxotere 70, 6 mice/group): 2 ± 0; antitumor activity ([4]; A2780, i.v. qd x 1): more active than Taxol; survival extension compared to Group 1 controls ([4]; A2780, i.v. qd x 1): 134%; MDS ([4]; A2780, i.v. qd x 1 (compounds estimated MTD; Taxol 24 mg/kg split; Taxotere 70 mg/kg), days until tumor 2.0 g, ended Day 60): 27.4 days; MDS (n) ([4]; mean days of survival until neoplasm reached 2.0 g, i.v. qd x 1 at estimated MTD (Taxol 24 mg/kg, Taxotere 70 mg/kg, 0983 72.6 mg/kg), 5 mice/group (Taxotere 6), terminated Day 60): 27.4 ± 3.5 (6) days; Complete Response [4, 9]: 0; Partial Respons [4, 9]: 0; Stable Disease [4, 9]: 0; Mean Score ([4]; tumor scoring system, i.v. qd x 1 at estimated MTD (Taxol 24 mg/kg, Taxotere 70 mg/kg, 0983 72.6 mg/kg), 5 mice/group (Taxotere 6)): 2.5 ± 0.3 |
